From the supplement of paper PMC12463676, “Small-molecule dissolution of stress granules by redox modulation benefits ALS models” (Nature Chemical Biology, 2025)

Assays:
lipoamide = compound: NC(=O)CCCCC1CCSS1 [lipoamide]; experiment: thermal stability z-score vs DMSO; higher = more thermally stabilized by treatment; details: HeLa, lipoamide concentration 100 µM
Protocol: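 Cellular thermal proteome profiling in HeLa cells. Cells were treated with 100 µM lipoamide for 1 h, with or without 1 mM arsenate for a further 1 h, then heated to ten temperatures (37-66.3 °C), and soluble protein was quantified by TMT mass spectrometry relative to 0.1% DMSO controls. The thermal stability score (sum of log2 fold changes minus the abundance score) was transformed to a z-score; mean of n = 3 experiments.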

potassium arsenate = compound: O=[As]([O-])(O)O.[K+] [potassium arsenate]; experiment: as above; details: HeLa; arsenate concentration 1 mM
Protocol: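 Cellular thermal proteome profiling in HeLa cells treated with 1 mM arsenate for 1 h (DMSO pretreatment), heated to ten temperatures (37-66.3 °C). Soluble protein was quantified by TMT mass spectrometry relative to DMSO controls; the thermal stability score was transformed to a z-score; mean of n = 3 experiments.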

[1] = arsenate co-treatment: 1 mM arsenate 1 h
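Further: each temperature applied for 3 min, abundance score taken as mean log2 fold change at the two lowest temperatures, z-score obtained by mean subtraction and division by SD.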

Sequence of UniProt Q92890 (Q92890 whole entry): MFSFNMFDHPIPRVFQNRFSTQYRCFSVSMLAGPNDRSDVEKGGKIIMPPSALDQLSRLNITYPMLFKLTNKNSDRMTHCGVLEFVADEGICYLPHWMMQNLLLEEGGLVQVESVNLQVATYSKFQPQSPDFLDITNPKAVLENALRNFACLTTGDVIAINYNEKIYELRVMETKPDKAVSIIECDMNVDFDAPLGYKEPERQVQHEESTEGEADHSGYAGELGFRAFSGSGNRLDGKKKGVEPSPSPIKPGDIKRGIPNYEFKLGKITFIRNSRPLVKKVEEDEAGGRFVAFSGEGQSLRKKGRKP
Sequence of UniProt Q9NR31 (Q9NR31 whole entry): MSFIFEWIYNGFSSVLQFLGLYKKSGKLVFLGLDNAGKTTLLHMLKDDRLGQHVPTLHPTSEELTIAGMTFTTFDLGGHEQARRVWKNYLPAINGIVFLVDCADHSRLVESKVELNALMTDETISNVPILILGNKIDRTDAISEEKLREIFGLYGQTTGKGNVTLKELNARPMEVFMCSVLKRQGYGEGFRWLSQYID
Sequence of UniProt Q15005 (Q15005 whole entry): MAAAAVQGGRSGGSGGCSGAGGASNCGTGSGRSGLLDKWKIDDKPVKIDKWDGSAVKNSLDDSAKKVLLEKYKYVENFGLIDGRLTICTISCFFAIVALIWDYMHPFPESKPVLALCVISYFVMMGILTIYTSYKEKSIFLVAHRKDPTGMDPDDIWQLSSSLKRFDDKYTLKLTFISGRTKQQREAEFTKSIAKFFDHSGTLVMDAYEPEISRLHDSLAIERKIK
Sequence of UniProt Q96H79 (Q96H79 whole entry): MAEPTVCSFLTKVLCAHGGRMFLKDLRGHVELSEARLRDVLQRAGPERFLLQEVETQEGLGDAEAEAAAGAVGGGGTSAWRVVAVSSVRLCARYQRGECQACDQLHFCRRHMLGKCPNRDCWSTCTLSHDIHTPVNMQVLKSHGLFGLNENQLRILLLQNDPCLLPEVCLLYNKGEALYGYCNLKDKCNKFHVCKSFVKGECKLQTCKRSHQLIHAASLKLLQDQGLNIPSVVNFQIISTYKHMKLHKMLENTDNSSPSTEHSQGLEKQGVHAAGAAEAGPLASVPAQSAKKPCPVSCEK
Sequence of UniProt P62834 (P62834 whole entry): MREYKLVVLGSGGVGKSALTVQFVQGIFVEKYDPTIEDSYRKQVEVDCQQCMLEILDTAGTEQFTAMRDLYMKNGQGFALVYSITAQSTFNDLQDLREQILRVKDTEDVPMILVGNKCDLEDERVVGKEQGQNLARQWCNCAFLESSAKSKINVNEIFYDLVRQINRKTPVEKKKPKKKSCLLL
Sequence of UniProt Q5ST30 (Q5ST30 whole entry): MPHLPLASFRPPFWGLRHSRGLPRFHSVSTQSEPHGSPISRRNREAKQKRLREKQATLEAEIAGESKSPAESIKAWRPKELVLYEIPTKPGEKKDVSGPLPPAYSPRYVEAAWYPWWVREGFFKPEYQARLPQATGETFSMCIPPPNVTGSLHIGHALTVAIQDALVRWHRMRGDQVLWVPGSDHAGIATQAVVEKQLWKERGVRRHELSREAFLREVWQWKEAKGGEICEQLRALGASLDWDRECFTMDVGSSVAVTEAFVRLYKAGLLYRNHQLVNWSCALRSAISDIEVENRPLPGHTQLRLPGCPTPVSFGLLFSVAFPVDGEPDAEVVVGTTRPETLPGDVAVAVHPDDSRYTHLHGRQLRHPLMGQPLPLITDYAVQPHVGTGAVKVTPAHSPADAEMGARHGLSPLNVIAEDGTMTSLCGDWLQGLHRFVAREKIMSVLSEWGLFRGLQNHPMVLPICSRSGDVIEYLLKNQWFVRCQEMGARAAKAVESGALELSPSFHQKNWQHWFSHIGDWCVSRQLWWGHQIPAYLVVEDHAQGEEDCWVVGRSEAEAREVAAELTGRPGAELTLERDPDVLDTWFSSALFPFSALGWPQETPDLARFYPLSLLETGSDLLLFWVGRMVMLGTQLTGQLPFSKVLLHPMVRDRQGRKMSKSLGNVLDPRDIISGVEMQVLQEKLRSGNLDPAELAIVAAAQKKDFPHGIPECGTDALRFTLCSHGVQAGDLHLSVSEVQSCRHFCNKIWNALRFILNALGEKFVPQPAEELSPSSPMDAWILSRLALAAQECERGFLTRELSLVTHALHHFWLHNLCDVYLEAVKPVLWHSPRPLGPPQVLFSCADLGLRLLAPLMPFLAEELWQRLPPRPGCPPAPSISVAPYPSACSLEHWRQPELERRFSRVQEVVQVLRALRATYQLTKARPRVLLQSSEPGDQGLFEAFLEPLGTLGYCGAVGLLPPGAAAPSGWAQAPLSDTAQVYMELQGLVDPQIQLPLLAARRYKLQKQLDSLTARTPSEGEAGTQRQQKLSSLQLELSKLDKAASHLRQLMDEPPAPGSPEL
Sequence of UniProt P60174 (P60174 whole entry): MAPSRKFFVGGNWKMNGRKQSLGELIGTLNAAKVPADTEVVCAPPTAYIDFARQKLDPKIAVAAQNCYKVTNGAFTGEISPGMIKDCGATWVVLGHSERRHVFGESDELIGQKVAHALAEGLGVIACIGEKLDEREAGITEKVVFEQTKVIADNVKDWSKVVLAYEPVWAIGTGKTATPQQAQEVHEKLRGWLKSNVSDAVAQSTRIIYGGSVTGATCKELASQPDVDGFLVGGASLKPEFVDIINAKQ
Sequence of UniProt Q9Y2H6 (Q9Y2H6 whole entry): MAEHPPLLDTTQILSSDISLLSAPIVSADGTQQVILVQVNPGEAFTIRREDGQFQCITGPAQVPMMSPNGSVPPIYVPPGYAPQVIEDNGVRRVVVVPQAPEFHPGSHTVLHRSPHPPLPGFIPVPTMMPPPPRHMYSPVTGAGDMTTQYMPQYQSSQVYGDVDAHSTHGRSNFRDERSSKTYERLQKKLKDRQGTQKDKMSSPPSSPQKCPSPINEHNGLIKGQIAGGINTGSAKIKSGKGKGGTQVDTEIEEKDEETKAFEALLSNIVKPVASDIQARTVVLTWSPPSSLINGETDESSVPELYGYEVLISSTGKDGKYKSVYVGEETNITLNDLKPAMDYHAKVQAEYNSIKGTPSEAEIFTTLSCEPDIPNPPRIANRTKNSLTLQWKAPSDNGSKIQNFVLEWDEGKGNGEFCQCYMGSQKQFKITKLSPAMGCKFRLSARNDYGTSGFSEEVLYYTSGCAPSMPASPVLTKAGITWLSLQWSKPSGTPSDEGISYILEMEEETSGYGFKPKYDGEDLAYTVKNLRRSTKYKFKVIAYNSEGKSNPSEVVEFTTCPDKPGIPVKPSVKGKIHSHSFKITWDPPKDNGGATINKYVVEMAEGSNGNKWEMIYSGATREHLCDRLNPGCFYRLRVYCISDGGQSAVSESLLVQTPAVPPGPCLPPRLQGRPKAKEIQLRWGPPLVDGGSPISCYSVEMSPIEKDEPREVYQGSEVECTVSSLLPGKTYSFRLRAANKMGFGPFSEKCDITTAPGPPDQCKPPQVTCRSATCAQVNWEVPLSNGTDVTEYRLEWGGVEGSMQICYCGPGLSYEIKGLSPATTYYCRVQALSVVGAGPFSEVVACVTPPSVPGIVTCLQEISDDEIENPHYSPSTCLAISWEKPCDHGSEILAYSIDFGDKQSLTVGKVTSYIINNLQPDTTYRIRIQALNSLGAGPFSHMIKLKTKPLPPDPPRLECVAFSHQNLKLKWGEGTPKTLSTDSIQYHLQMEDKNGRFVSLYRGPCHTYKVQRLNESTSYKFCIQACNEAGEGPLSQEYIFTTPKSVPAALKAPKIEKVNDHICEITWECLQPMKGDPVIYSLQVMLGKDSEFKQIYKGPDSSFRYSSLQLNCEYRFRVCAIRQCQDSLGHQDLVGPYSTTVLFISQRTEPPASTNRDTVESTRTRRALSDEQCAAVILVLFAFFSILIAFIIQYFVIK
Sequence of UniProt Q8IZ52 (Q8IZ52 whole entry): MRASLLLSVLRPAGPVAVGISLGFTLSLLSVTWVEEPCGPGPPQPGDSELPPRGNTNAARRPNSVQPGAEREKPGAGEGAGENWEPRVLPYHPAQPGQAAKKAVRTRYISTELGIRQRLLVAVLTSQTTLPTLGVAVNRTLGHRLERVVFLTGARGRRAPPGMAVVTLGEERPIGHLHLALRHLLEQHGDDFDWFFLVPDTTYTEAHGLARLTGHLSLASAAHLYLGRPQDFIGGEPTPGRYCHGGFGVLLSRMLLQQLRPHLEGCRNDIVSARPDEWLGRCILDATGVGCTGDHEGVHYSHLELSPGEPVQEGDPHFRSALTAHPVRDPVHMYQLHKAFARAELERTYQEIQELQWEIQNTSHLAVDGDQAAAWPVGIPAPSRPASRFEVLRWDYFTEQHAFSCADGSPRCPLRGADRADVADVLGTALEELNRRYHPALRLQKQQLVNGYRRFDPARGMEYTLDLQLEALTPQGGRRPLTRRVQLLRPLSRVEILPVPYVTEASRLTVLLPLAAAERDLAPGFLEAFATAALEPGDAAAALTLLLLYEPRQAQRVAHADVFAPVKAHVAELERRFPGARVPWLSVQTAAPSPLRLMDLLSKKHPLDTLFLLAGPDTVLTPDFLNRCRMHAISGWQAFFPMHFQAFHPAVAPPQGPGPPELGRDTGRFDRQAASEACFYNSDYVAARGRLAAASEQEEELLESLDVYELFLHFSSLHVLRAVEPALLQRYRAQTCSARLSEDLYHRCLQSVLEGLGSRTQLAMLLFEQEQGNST
Sequence of UniProt P37108 (P37108 whole entry): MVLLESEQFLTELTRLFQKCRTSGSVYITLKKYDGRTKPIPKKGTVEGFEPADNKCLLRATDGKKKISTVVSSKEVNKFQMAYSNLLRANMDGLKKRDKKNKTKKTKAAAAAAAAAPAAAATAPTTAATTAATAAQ
Sequence of UniProt P61956 (P61956 whole entry): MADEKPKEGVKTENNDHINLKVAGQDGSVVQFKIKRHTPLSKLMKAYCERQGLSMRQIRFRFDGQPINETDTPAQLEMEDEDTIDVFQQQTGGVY
Sequence of UniProt O43665 (O43665 whole entry): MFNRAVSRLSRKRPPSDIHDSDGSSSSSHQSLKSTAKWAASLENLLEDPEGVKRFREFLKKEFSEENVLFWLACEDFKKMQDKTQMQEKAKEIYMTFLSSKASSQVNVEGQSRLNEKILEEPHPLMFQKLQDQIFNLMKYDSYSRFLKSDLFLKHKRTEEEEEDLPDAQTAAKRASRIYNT

Target | thermal stability z-score (lipoamide; [1]) | thermal stability z-score (lipoamide; arsenate co-treatment: none) | thermal stability z-score (potassium arsenate)
SNX33 (UniProt Q8WV41) | -0.136 | 0.0586 | -0.148
SRP14 (UniProt P37108) | -0.152 | -0.0661 | -0.436
RPL34 (UniProt P49207) | 0.331 | 0.134 | -1.17
SUMO2 (UniProt P61956) | 1.1 | 1.59 | 0.306
VARS2 (UniProt Q5ST30) | -0.824 | -0.273 | 0.279
RGS10 (UniProt O43665) | 0.748 | 0.902 | 0.0472
TANC2 (UniProt Q9HCD6) | -0.0889 | -0.116 | -0.0159
AGK (UniProt Q53H12) | 0.541 | 0.38 | 0.573
ZNFX1 (UniProt Q9P2E3) | 0.113 | 1.85 | 2.01
CHPF (UniProt Q8IZ52) | -1.5 | -0.387 | -0.257
TRIP11 (UniProt Q15643) | -2.35 | -0.484 | 0.782
SCO1 (UniProt O75880) | -2.79 | -2.65 | 3.03
SPCS2 (UniProt Q15005) | -0.33 | -0.411 | -0.373
BACE2 (UniProt Q9Y5Z0) | -0.766 | -0.974 | 1.09
SREBF1 (UniProt P36956) | -0.33 | 0.0707 | 0.119
TPI1 (UniProt P60174) | 0.408 | 0.0882 | -0.48
UFD1L (UniProt Q92890) | -0.427 | -0.0782 | 0.36
PDCD2L (UniProt Q9BRP1) | 0.275 | 0.139 | -0.161

Target | thermal stability z-score (lipoamide; [1]) | thermal stability z-score (lipoamide; arsenate co-treatment: none) | thermal stability z-score (potassium arsenate)
DARS2 (UniProt Q6PI48) | -0.726 | -0.586 | -1.93
COG1 (UniProt Q8WTW3) | -0.441 | -0.42 | 0.183
SEMA3C (UniProt Q99985) | -0.0185 | -0.402 | -0.147
RPL7L1 (UniProt Q6DKI1) | 0.203 | 0.0421 | -0.203
DHX29 (UniProt Q7Z478) | 0.104 | 0.27 | 0.267
FNDC3A (UniProt Q9Y2H6) | -0.542 | 0.324 | 0.846
ATF6 (UniProt P18850) | -0.0284 | -0.0127 | -0.177
POFUT2 (UniProt Q9Y2G5) | -1.74 | -2.4 | -0.177
RNF169 (UniProt Q8NCN4) | -0.0589 | 0.0354 | -0.0867
ZC3HAV1L (UniProt Q96H79) | 0.323 | -0.218 | 0.0902
ORC2 (UniProt Q13416) | 0.0753 | 0.0589 | 0.0824
TNPO2 (UniProt O14787) | -1.26 | -0.726 | 0.809
SAR1A (UniProt Q9NR31) | 0.174 | 0.266 | 0.248
RAP1A (UniProt P62834) | 0.141 | -0.173 | -0.254
ZNF428 (UniProt Q96B54) | 1.64 | 2.65 | 1.85
BRIX1 (UniProt Q8TDN6) | 0.442 | -0.0247 | 1.3
TLN2 (UniProt Q9Y4G6) | -1.57 | -0.868 | -0.69
